Data: patent US8263656B2 (Hoffmann-La Roche Inc., priority 2008, dated 2012)

target: T1, human CRTH2 (Homo sapiens, UniProt Q9Y5Y4); test: Human CRTH2 Receptor Binding Assay (whole cell, [3H]ramatroban competition); settings: CHO-K1 cells expressing human CRTH2 and G-alpha16; 20 nM [3H]ramatroban; 1 hour, room temperature
T1 construct: expressed in transfected cells
T1 sequence (Q9Y5Y4 1-395): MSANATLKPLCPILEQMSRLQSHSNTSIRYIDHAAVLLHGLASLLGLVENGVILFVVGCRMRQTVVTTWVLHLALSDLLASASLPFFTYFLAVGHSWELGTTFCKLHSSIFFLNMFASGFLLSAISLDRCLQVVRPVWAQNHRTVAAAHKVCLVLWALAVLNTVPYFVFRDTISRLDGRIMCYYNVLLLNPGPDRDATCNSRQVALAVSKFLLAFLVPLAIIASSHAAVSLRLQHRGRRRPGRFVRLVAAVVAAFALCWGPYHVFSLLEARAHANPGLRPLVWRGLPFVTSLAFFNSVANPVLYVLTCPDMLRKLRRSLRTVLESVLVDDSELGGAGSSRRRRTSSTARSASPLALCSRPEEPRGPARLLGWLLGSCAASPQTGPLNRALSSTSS
Source text: A whole cell receptor binding assay using [^3H]ramatroban as the competing radioactive ligand was employed to evaluate the compound binding activity to human CRTH2. The radioactive ligand [^3H]ramatroban was synthesized according to Sugimoto et. al. (Eur. J. Pharmacol. 524, 30-37, 2005) to a specific activity of 42 Ci/mmol.
A cell line stably expressing human CRTH2 was established by transfecting CHO-K1 cells with two mammalian expression vectors that harbored human CRTH2 and G-alpha16 cDNAs, respectively, using FuGene® 6 transfection reagent (from Roche). Stable clones expressing CRTH2 were selected by staining each clone with BM16 (BD Pharmingen™ from BD Biosciences, a division of Becton, Dickinson and Company), which is a rat monoclonal antibody to human CRTH2. The cells were maintained as monolayer cultures in Ham's F-12 medium containing 10% fetal bovine serum, 100 units/mL penicillin, […] streptomycin, 2 mM glutamine, 0.5 mg/mL G418 (geneticin) for CRTH2, and 0.2 mg/mL hygromycin-B (for G-alpha 16). For whole cell receptor binding assay, the monolayer cells were rinsed once with PBS (phosphate buffered saline), dissociated using diammonium ethylenediaminetetraacetate (Versene™ EDTA from the Dow Chemical Company), and suspended in PBS containing 10 mM MgCl2 and 0.06% BSA (bovine serum albumin) at 1.5×10^6 cells/mL.
The binding reactions (0.2 mL) were performed in 96-well plates at room temperature in PBS containing 1.5×10^5 cells, 10 mM MgCl2, 0.06% BSA, 20 nM [^3H]ramatroban, and test compound at various concentrations. After 1 hour of binding reactions, the cells were harvested on GF™/B filter microplates (microtiter plates with embedded glass fiber from PerkinElmer, Inc.) and washed 5 times with PBS using a Filtermate™ Harvester (a cell harvester that harvests and washes cells from microplates from PerkinElmer, Inc.). The radioactivities bound to the cells were determined using a microplate scintillation counter (TopCount® NXT, from PerkinElmer, Inc.) after adding 50 μL of Microscint™ 20 scintillation fluid (from PerkinElmer, Inc.) to each well of the filter plates. The radioactivity from non-specific binding was determined by replacing compound with 10 μM of 15(R)-15-methyl PGD2 (from Cayman Chemical Company) in the reaction mixtures. The radioactivity bound to the cells in the absence of compound (total binding) was determined by replacing compound with 0.25% of DMSO (dimethyl sulfoxide) in the reaction mixture. Specific binding data were obtained by subtracting the radioactivity of non-specific binding from each binding data.
The IC50 value is defined as the concentration of the tested compound that is required for 50% inhibition of total specific binding. In order to calculate the IC50 value, the percent inhibition data were determined for 7 concentrations for each compound. The percent inhibition for a compound at each concentration was calculated according to the following formula, [1-(specific binding in the presence of compound)/(total specific binding)]×100. The IC50 value was then obtained by fitting the percent inhibition data to a sigmoidal dose-response (4 parameter logistic) model in the XLfit® software Excel add-in program [from ID Business Solutions Ltd., model 205, where F(x)=(A+(B−A)/(1+((C/x)^D)))].

SMILES	IC50 [nM]
Cc1ccc2c(c1OCC(=O)O)CCCC2NS(=O)(=O)c1cc(C(F)(F)F)cc(C(F)(F)F)c1 (centres unmarked) [Example 1-3, [5-(3,5-Bis-trifluoromethyl-benzenesulfonyl-amino)-2-methyl-5,6,7,8-tetrahydro-naphthalen-1-yloxy]-acetic acid]	147
CCc1ccc2c(c1OCC(=O)O)CCCC2NS(=O)(=O)c1cc(C(F)(F)F)cc(C(F)(F)F)c1 (centres unmarked) [Example 1-4, [5-(3,5-Bis-trifluoromethyl-benzenesulfonyl-amino)-2-ethyl-5,6,7,8-tetrahydro-naphthalen-1-yloxy]-acetic acid]	64
O=C(O)COc1c(Cl)ccc2c1CCCC2NS(=O)(=O)c1cc(C(F)(F)F)cc(C(F)(F)F)c1 (centres unmarked) [Example 1-7, [5-(3,5-Bis-trifluoromethyl-benzenesulfonyl-amino)-2-chloro-5,6,7,8-tetrahydro-naphthalen-1-yloxy]-acetic acid]	292
O=C(O)COc1c(F)c(Cl)cc2c1CCCC2NS(=O)(=O)c1cc(C(F)(F)F)cc(C(F)(F)F)c1 (centres unmarked) [Example 1-9, [5-(3,5-Bis-trifluoromethyl-benzenesulfonyl-amino)-3-chloro-2-fluoro-5,6,7,8-tetrahydro-naphthalen-1-yloxy]-acetic acid]	5.8
O=C(O)COc1c(Cl)c(Cl)cc2c1CCCC2NS(=O)(=O)c1cc(C(F)(F)F)cc(C(F)(F)F)c1 (centres unmarked) [Example 1-12, [5-(3,5-Bis-trifluoromethyl-benzenesulfonyl-amino)-2,3-dichloro-5,6,7,8-tetrahydro-naphthalen-1-yloxy]-acetic acid]	26.1
O=C(O)COc1cc(Cl)cc2c1CCCC2NS(=O)(=O)c1cc(Cl)ccc1Cl (centres unmarked) [Example 1-13, [3-Chloro-5-(2,5-dichloro-benzenesulfonyl-amino)-5,6,7,8-tetrahydro-naphthalen-1-yloxy]-acetic acid]	7.1
O=C(O)COc1c(F)c(Cl)cc2c1CCCC2NS(=O)(=O)c1ccc(Cl)cc1Cl (centres unmarked) [Example 1-14]	7.7
O=C(O)COc1cc(Cl)cc2c1CCCC2NS(=O)(=O)c1cc(Br)cc(C(F)(F)F)c1 (centres unmarked) [Example 1-17, [5-(3-Bromo-5-trifluoromethyl-benzenesulfonyl-amino)-3-chloro-5,6,7,8-tetrahydro-naphthalen-1-yloxy]-acetic acid]	3.6
O=C(O)COc1cc(Cl)cc2c1CCC[C@H]2NS(=O)(=O)c1ccc(Cl)cc1Cl [Example 1-18, [(R)-3-Chloro-5-(2,4-dichloro-benzenesulfonyl-amino)-5,6,7,8-tetrahydro-naphthalen-1-yloxy]-acetic acid]	2.8
O=C(O)COc1cc(Br)cc2c1CCC[C@H]2NS(=O)(=O)c1cc(C(F)(F)F)cc(C(F)(F)F)c1 [Example 1-20, [(R)-5-(3,5-Bis-trifluoromethyl-benzenesulfonyl-amino)-3-bromo-5,6,7,8-tetrahydro-naphthalen-1-yloxy]-acetic acid]	2.5
O=C(O)COc1c(F)c(Cl)cc2c1CCCC2NS(=O)(=O)c1cc(F)cc(C(F)(F)F)c1 (centres unmarked) [Example 1-21, [3-Chloro-2-fluoro-5-(3-fluoro-5-trifluoromethyl-benzenesulfonyl-amino)-5,6,7,8-tetrahydro-naphthalen-1-yloxy]-acetic acid]	2.8
O=C(O)COc1c(Cl)ccc2c1CCC[C@H]2NS(=O)(=O)c1cc(C(F)(F)F)cc(C(F)(F)F)c1 [Example 1-25, [(R)-5-(3,5-Bis-trifluoromethyl-benzenesulfonyl-amino)-2-chloro-5,6,7,8-tetrahydro-naphthalen-1-yloxy]-acetic acid]	95.9
O=C(O)COc1cc(F)cc2c1CCCC2NS(=O)(=O)c1cc(F)cc(C(F)(F)F)c1 (centres unmarked) [Example 1-27, [3-Fluoro-5-(3-fluoro-5-trifluoromethyl-benzenesulfonyl-amino)-5,6,7,8-tetrahydro-naphthalen-1-yloxy]-acetic acid]	40.1

The next lines start with the values.

IC50 [nM]	SMILES
2.4	O=C(O)COc1c(F)c(Cl)cc2c1CCC[C@H]2NS(=O)(=O)c1cc(C(F)(F)F)cc(C(F)(F)F)c1 [Example 1-1, [(R)-5-(3,5-Bis-trifluoromethyl-benzenesulfonylamino)-3-chloro-2-fluoro-5,6,7,8-tetrahydro-naphthalen-1-yloxy]-acetic acid]
28.4	Cc1c(Cl)cc2c(c1OCC(=O)O)CCCC2NS(=O)(=O)c1cc(C(F)(F)F)cc(C(F)(F)F)c1 (centres unmarked) [Example 1-5, [5-(3,5-Bis-trifluoromethyl-benzenesulfonyl-amino)-3-chloro-2-methyl-5,6,7,8-tetrahydro-naphthalen-1-yloxy]-acetic acid]
5.8	O=C(O)COc1cc(Cl)cc2c1CCCC2NS(=O)(=O)c1cc(C(F)(F)F)cc(C(F)(F)F)c1 (centres unmarked) [Example 1-6]
3.5	O=C(O)COc1cc(Cl)cc2c1CCC[C@H]2NS(=O)(=O)c1cc(C(F)(F)F)cc(C(F)(F)F)c1 [Example 1-8]
11.4	O=C(O)COc1c(F)c(Cl)cc2c1CCCC2NS(=O)(=O)c1cc(Cl)ccc1Cl (centres unmarked) [Example 1-10]
3.5	O=C(O)COc1cc(Cl)cc2c1CCCC2NS(=O)(=O)c1ccc(Cl)cc1Cl (centres unmarked) [Example 1-11, [3-Chloro-5-(2,4-dichloro-benzenesulfonyl-amino)-5,6,7,8-tetrahydro-naphthalen-1-yloxy]-acetic acid]
8	O=C(O)COc1c(F)c(Cl)cc2c1CCCC2NS(=O)(=O)c1cc(Br)cc(C(F)(F)F)c1 (centres unmarked) [Example 1-15, [5-(3-Bromo-5-trifluoromethyl-benzenesulfonyl-amino)-3-chloro-2-fluoro-5,6,7,8-tetrahydro-naphthalen-1-yloxy]-acetic acid]
3.8	O=C(O)COc1cc(Cl)cc2c1CCCC2NS(=O)(=O)c1cc(F)cc(C(F)(F)F)c1 (centres unmarked) [Example 1-16, [3-Chloro-5-(3-fluoro-5-trifluoromethyl-benzenesulfonyl-amino)-5,6,7,8-tetrahydro-naphthalen-1-yloxy]-acetic acid]
2.9	O=C(O)COc1cc(Br)cc2c1CCCC2NS(=O)(=O)c1cc(C(F)(F)F)cc(C(F)(F)F)c1 (centres unmarked) [Example 1-19, [5-(3,5-Bis-trifluoromethyl-benzenesulfonyl-amino)-3-bromo-5,6,7,8-tetrahydro-naphthalen-1-yloxy]-acetic acid]
33.7	O=C(O)COc1c(F)ccc2c1CCCC2NS(=O)(=O)c1cc(C(F)(F)F)cc(C(F)(F)F)c1 (centres unmarked) [Example 1-22, [5-(3,5-Bis-trifluoromethyl-benzenesulfonyl-amino)-2-fluoro-5,6,7,8-tetrahydro-naphthalen-1-yloxy]-acetic acid]
3.6	COc1cc(OCC(=O)O)c2c(c1)[C@H](NS(=O)(=O)c1cc(C(F)(F)F)cc(C(F)(F)F)c1)CCC2 [Example 1-23, [(R)-5-(3,5-Bis-trifluoromethyl-benzenesulfonyl-amino)-3-methoxy-5,6,7,8-tetrahydro-naphthalen-1-yloxy]-acetic acid]
3.7	O=C(O)COc1cc(-c2ccccc2)cc2c1CCCC2NS(=O)(=O)c1cc(C(F)(F)F)cc(C(F)(F)F)c1 (centres unmarked) [Example 1-24, [5-(3,5-Bis-trifluoromethyl-benzenesulfonyl-amino)-3-phenyl-5,6,7,8-tetrahydro-naphthalen-1-yloxy]-acetic acid]
42.2	O=C(O)COc1c(F)c(F)cc2c1CCCC2NS(=O)(=O)c1cc(F)cc(C(F)(F)F)c1 (centres unmarked) [Example 1-26, [2,3-Difluoro-5-(3-fluoro-5-trifluoromethyl-benzenesulfonyl-amino)-5,6,7,8-tetrahydro-naphthalen-1-yloxy]-acetic acid]
